Laboratory results reported in patent publication US10167262B2, “Herbicidal substituted 3-arylpyrazoles” (FMC CORPORATION, priority 2014, dated 2019).

What was measured:
Experiment in all cases: Test C pre-/postemergence greenhouse test, plant response rating 0-100
Assay type in all cases: in vivo
[1] = system: lambsquarters (Chenopodium album)
Summary of the method: (§1)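 Scores run from 0, no effect, to 100, complete control, assigned by eye after treated plants and controls spent 13 to 15 days in a greenhouse. Soil-applied treatment went onto freshly sown seed in loam and sand; foliar treatment hit seedlings at the 1- to 4-leaf stage.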

soybean (Glycine max) = system: soybean (Glycine max)
Summary of the method: as §1

[2] = system: ragweed (common ragweed, Ambrosia elatior)
Summary of the method: as §1

[3] = system: blackgrass (Alopecurus myosuroides)
Summary of the method: as §1

[4] = system: galium (catchweed bedstraw, Galium aparine)
Summary of the method: as §1

[5] = system: velvetleaf (Abutilon theophrasti)
Summary of the method: as §1

[6] = system: pigweed (Amaranthus retroflexus)
Summary of the method: as §1

[7] = system: yellow nutsedge (Cyperus esculentus)
Summary of the method: as §1

[8] = system: large (Lg) crabgrass (Digitaria sanguinalis)
Summary of the method: as §1

[9] = system: Italian ryegrass (Lolium multiflorum)
Summary of the method: as §1

[10] = system: morningglory (Ipomoea coccinea)
Summary of the method: as §1

corn (Zea mays) = system: corn (Zea mays)
Summary of the method: as §1

[11] = Postemergence, 250 g ai/ha, scale 0 to 100

Question: What does the source list for `O=C(c1cncc(F)c1)c1c[nH]nc1-c1cc(Cl)cc(Cl)c1` [Compound 19]?
Answer: Plant response rating (0 to 100), Lambsquarters ([1]; Postemergence, 62 g ai/ha): 10; Plant response rating (0 to 100), Lambsquarters ([1]; Postemergence, 125 g ai/ha): 15; Plant response rating, Lambsquarters [1, 11]: 10; Plant response rating, Lambsquarters ([1]; Preemergence, 31 g ai/ha): 100; Plant response rating, Lambsquarters ([1]; Preemergence, 62 g ai/ha): 100; Plant response rating, Lambsquarters ([1]; Preemergence, 125 g ai/ha): 100; Plant response rating, Lambsquarters ([1]; Preemergence, 250 g ai/ha): 100; Plant response rating (0 to 100), Soybean (soybean (Glycine max); Postemergence, 62 g ai/ha): 0; Plant response rating (0 to 100), Soybean (soybean (Glycine max); Postemergence, 125 g ai/ha): 0; Plant response rating, Soybean (soybean (Glycine max); [11]): 0; Plant response rating, Soybean (soybean (Glycine max); Preemergence, 62 g ai/ha): 0; Plant response rating, Soybean (soybean (Glycine max); Preemergence, 125 g ai/ha): 0; Plant response rating, Soybean (soybean (Glycine max); Preemergence, 250 g ai/ha): 85; Plant response rating (0 to 100), Ragweed ([2]; Postemergence, 62 g ai/ha): 70; Plant response rating (0 to 100), Ragweed ([2]; Postemergence, 125 g ai/ha): 80; Plant response rating, Ragweed [2, 11]: 90; Plant response rating, Ragweed ([2]; Preemergence, 62 g ai/ha): 85; Plant response rating, Ragweed ([2]; Preemergence, 125 g ai/ha): 100; Plant response rating, Ragweed ([2]; Preemergence, 250 g ai/ha): 100; Plant response rating (0 to 100), Blackgrass ([3]; Postemergence, 31 g ai/ha): 0; Plant response rating (0 to 100), Blackgrass ([3]; Postemergence, 62 g ai/ha): 0; Plant response rating, Blackgrass ([3]; Postemergence, 125 g ai/ha, scale 0 to 100): 0; Plant response rating, Blackgrass [3, 11]: 0; Plant response rating, Blackgrass ([3]; Preemergence, 31 g ai/ha): 10; Plant response rating, Blackgrass ([3]; Preemergence, 62 g ai/ha): 0; Plant response rating, Blackgrass ([3]; Preemergence, 125 g ai/ha): 0; Plant response rating, Blackgrass ([3]; Preemergence, 250 g ai/ha): 50; Plant response rating (0 to 100), Galium ([4]; Postemergence, 31 g ai/ha): 15; Plant response rating (0 to 100), Galium ([4]; Postemergence, 62 g ai/ha): 40; Plant response rating (0 to 100), Galium ([4]; Postemergence, 125 g ai/ha): 40; Plant response rating, Galium [4, 11]: 45; Plant response rating, Galium ([4]; Preemergence, 31 g ai/ha): 0; Plant response rating, Galium ([4]; Preemergence, 62 g ai/ha): 80; Plant response rating, Galium ([4]; Preemergence, 125 g ai/ha): 95; Plant response rating, Galium ([4]; Preemergence, 250 g ai/ha): 100; Plant response rating (0 to 100), Velvetleaf ([5]; Postemergence, 62 g ai/ha): 25; Plant response rating (0 to 100), Velvetleaf ([5]; Postemergence, 125 g ai/ha): 40; Plant response rating, Velvetleaf [5, 11]: 55; Plant response rating, Velvetleaf ([5]; Preemergence, 62 g ai/ha): 40; Plant response rating, Velvetleaf ([5]; Preemergence, 125 g ai/ha): 75; Plant response rating, Velvetleaf ([5]; Preemergence, 250 g ai/ha): 98; Plant response rating (0 to 100), Pigweed ([6]; Postemergence, 62 g ai/ha): 85; Plant response rating (0 to 100), Pigweed ([6]; Postemergence, 125 g ai/ha): 90; Plant response rating, Pigweed [6, 11]: 95; Plant response rating, Pigweed ([6]; Preemergence, 31 g ai/ha): 75; Plant response rating, Pigweed ([6]; Preemergence, 62 g ai/ha): 85; Plant response rating, Pigweed ([6]; Preemergence, 125 g ai/ha): 100; Plant response rating, Pigweed ([6]; Preemergence, 250 g ai/ha): 100; Plant response rating (0 to 100), Nutsedge, Yellow ([7]; Postemergence, 62 g ai/ha): 5; Plant response rating (0 to 100), Nutsedge, Yellow ([7]; Postemergence, 125 g ai/ha): 5; Plant response rating, Nutsedge, Yellow [7, 11]: 5; Plant response rating, Nutsedge, Yellow ([7]; Preemergence, 31 g ai/ha): 0; Plant response rating, Nutsedge, Yellow ([7]; Preemergence, 62 g ai/ha): 0; Plant response rating, Nutsedge, Yellow ([7]; Preemergence, 125 g ai/ha): 0; Plant response rating, Nutsedge, Yellow ([7]; Preemergence, 250 g ai/ha): 0; Plant response rating (0 to 100), Crabgrass, Large ([8]; Postemergence, 31 g ai/ha): 0; Plant response rating (0 to 100), Crabgrass, Large ([8]; Postemergence, 62 g ai/ha): 0; Plant response rating (0 to 100), Crabgrass, Large ([8]; Postemergence, 125 g ai/ha): 10; Plant response rating, Crabgrass, Large [8, 11]: 10; Plant response rating, Crabgrass, Large ([8]; Preemergence, 31 g ai/ha): 0; Plant response rating, Crabgrass, Large ([8]; Preemergence, 62 g ai/ha): 0; Plant response rating, Crabgrass, Large ([8]; Preemergence, 125 g ai/ha): 0; Plant response rating, Crabgrass, Large ([8]; Preemergence, 250 g ai/ha): 0; Plant response rating (0 to 100), Ryegrass, Italian ([9]; Postemergence, 62 g ai/ha): 0; Plant response rating (0 to 100), Ryegrass, Italian ([9]; Postemergence, 125 g ai/ha): 0; Plant response rating, Ryegrass, Italian [9, 11]: 5; Plant response rating, Ryegrass, Italian ([9]; Preemergence, 62 g ai/ha): 0; Plant response rating, Ryegrass, Italian ([9]; Preemergence, 125 g ai/ha): 0; Plant response rating, Ryegrass, Italian ([9]; Preemergence, 250 g ai/ha): 10; Plant response rating (0 to 100), Morningglory ([10]; Postemergence, 62 g ai/ha): 0; Plant response rating (0 to 100), Morningglory ([10]; Postemergence, 125 g ai/ha): 0; Plant response rating, Morningglory [10, 11]: 0; Plant response rating, Morningglory ([10]; Preemergence, 31 g ai/ha): 0; Plant response rating, Morningglory ([10]; Preemergence, 62 g ai/ha): 0; Plant response rating, Morningglory ([10]; Preemergence, 125 g ai/ha): 0; Plant response rating, Morningglory ([10]; Preemergence, 250 g ai/ha): 10; Plant response rating (0 to 100), Corn (corn (Zea mays); Postemergence, 31 g ai/ha): 0; Plant response rating (0 to 100), Corn (corn (Zea mays); Postemergence, 62 g ai/ha): 0; Plant response rating (0 to 100), Corn (corn (Zea mays); Postemergence, 125 g ai/ha): 0; Plant response rating, Corn (corn (Zea mays); [11]): 0; Plant response rating, Corn (corn (Zea mays); Preemergence, 31 g ai/ha): 0; Plant response rating, Corn (corn (Zea mays); Preemergence, 62 g ai/ha): 0; Plant response rating, Corn (corn (Zea mays); Preemergence, 125 g ai/ha): 0; Plant response rating, Corn (corn (Zea mays); Preemergence, 250 g ai/ha): 0
